target: human SGLT2 (Homo sapiens (Human), UniProt P31639); experiment: hSGLT2 inhibitory activity, sodium-dependent 14C-AMG glucose transport assay in CHO cells expressing hSGLT2; format: cell-based; details: 14C-AMG uptake, CHO cells expressing hSGLT2, 37° C. for 2 h
Description: Human SGLT2 (hSGLT2) gene was amplified by PCR from cDNA-Human Adult Normal Tissue Kidney (Invitrogen, Carlsbad, Calif.). The hSGLT2 sequence was cloned into pcDNA3.1(+) for mammalian expression and were stably transfected into Chinese hamster ovary (CHO) cells. SGLT2-expressing clones were selected based on resistance to G418 antibiotic (Geneticin®, Invitrogen, Carlsbad, Calif.) and activity in the ^14C-α-methyl-D-glucopyranoside (^14C-AMG) uptake assay.
For sodium-dependent glucose transport assay, cells expressing hSGLT2 were seeded into a 96-well culture plate at a density of 5×10^4 cells/well in RPMI medium 1640 containing 10% fetal bovine serum. The cells were used 1 day after plating. They were incubated in pretreatment buffer (10 mM HEPES, 5 mM Tris, 140 mM choline chloride, 2 mM KCl, 1 mM CaCl2, and 1 mM MgCl2, pH 7.4) at 37° C. for 10 min. They were then incubated in uptake buffer (10 mM HEPES, 5 mM Tris, 140 mM NaCl, 2 mM KCl, 1 mM CaCl2, 1 mM MgCl2, and 1 mM ^14C-nonlabeled AMG pH 7.4) containing ^14C-labeled (8 uM) and inhibitor or dimethyl sulfoxide (DMSO) vehicle at 37° C. for 2 h. Cells were washed twice with washing buffer (pretreatment buffer containing 10 mM AMG at room temperature) and then the radioactivity was measured using a liquid scintillation counter.

human SGLT2, sequence (P31639 whole entry): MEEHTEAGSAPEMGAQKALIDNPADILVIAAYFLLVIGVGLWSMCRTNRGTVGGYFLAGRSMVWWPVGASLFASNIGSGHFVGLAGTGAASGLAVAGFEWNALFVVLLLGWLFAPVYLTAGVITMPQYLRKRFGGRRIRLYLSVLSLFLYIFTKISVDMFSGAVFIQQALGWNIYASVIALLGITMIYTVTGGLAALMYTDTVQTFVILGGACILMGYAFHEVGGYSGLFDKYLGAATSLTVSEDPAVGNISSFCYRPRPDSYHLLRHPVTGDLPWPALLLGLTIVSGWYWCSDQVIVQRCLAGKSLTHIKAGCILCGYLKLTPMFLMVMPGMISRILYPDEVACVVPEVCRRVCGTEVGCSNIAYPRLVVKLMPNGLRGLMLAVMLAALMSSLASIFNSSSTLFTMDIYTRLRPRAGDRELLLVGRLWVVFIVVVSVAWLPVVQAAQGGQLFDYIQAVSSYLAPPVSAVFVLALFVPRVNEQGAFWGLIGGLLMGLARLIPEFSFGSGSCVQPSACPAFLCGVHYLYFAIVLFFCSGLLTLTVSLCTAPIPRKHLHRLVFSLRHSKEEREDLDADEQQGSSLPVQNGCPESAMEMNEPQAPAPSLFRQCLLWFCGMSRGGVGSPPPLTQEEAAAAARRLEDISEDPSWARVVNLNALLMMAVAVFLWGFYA

| IC50 | SMILES |
| --- | --- |
| 7.03 nM | OC[C@H]1O[C@@H](c2ccc(Cl)c(Cc3nnc(-c4ccco4)s3)c2)[C@H](O)[C@@H](O)[C@@H]1O [Example 1, (2S,3R,4R,5S,6R)-2-(4-Chloro-3-((5-(furan-2-yl)-1,3,4-thiadiazol-2-yl)methyl)phenyl)-6-(hydroxymethyl)-tetrahydro-2H-pyran-3,4,5-triol] |
| 58.3 nM | Cc1ccc(-c2nnc(Cc3cc([C@@H]4O[C@H](CO)[C@@H](O)[C@H](O)[C@H]4O)ccc3Cl)s2)o1 [Example 2, (2S,3R,4R,5S,6R)-2-(4-Chloro-3-((5-(5-methylfuran-2-yl)-1,3,4-thiadiazol-2-yl)methyl)phenyl)-6-(hydroxymethyl)-tetrahydro-2H-pyran-3,4,5-triol] |
| 106 nM | Cc1ccoc1-c1nnc(Cc2cc([C@@H]3O[C@H](CO)[C@@H](O)[C@H](O)[C@H]3O)ccc2Cl)s1 [Example 3, (2S,3R,4R,5S,6R)-2-(4-Chloro-3-((5-(3-methylfuran-2-yl)-1,3,4-thiadiazol-2-yl)methyl)phenyl)-6-(hydroxymethyl)-tetrahydro-2H-pyran-3,4,5-triol] |
| 17.7 nM | OC[C@H]1O[C@@H](c2ccc(Cl)c(Cc3nnc(-c4ccoc4)s3)c2)[C@H](O)[C@@H](O)[C@@H]1O [Example 4, (2S,3R,4R,5S,6R)-2-(4-Chloro-3-((5-(furan-3-yl)-1,3,4-thiadiazol-2-yl)methyl)phenyl)-6-(hydroxymethyl)tetrahydro-2H-pyran-3,4,5-triol] |
| 14.4 nM | OC[C@H]1O[C@@H](c2ccc(Cl)c(Cc3nnc(-c4cccs4)s3)c2)[C@H](O)[C@@H](O)[C@@H]1O [Example 5, (2S,3R,4R,5S,6R)-2-(4-Chloro-3-((5-(thiophen-2-yl)-1,3,4-thiadiazol-2-yl)methyl)phenyl)-6-(hydroxymethyl)tetrahydro-2H-pyran-3,4,5-triol] |
| 44.5 nM | OC[C@H]1O[C@@H](c2ccc(Cl)c(Cc3nnc(-c4cc5ccccc5s4)s3)c2)[C@H](O)[C@@H](O)[C@@H]1O [Example 6, (2S,3R,4R,5S,6R)-2-(3-((5-(Benzo[b]thiophen-2-yl)-1,3,4-thiadiazol-2-yl)methyl)-4-chlorophenyl)-6-(hydroxymethyl)-tetrahydro-2H-pyran-3,4,5-triol] |
| 762 nM | Cc1ccsc1-c1nnc(Cc2cc([C@@H]3O[C@H](CO)[C@@H](O)[C@H](O)[C@H]3O)ccc2Cl)s1 [Example 7, (2S,3R,4R,5S,6R)-2-(4-chloro-3-((5-(3-methylthiophen-2-yl)-1,3,4-thiadiazol-2-yl)methyl)phenyl)-6-(hydroxymethyl)-tetrahydro-2H-pyran-3,4,5-triol] |
| 18.2 nM | OC[C@H]1O[C@@H](c2ccc(Cl)c(Cc3nnc(-c4ccc(Cl)s4)s3)c2)[C@H](O)[C@@H](O)[C@@H]1O [Example 8, (2S,3R,4R,5S,6R)-2-(4-Chloro-3-((5-(5-chlorothiophen-2-yl)-1,3,4-thiadiazol-2-yl)methyl)phenyl)-6-(hydroxymethyl)-tetrahydro-2H-pyran-3,4,5-triol] |
| 712 nM | OC[C@H]1O[C@@H](c2ccc(Cl)c(Cc3nnc(-c4sccc4Cl)s3)c2)[C@H](O)[C@@H](O)[C@@H]1O [Example 9, (2S,3R,4R,5S,6R)-2-(4-Chloro-3-((5-(3-chlorothiophen-2-yl)-1,3,4-thiadiazol-2-yl)methyl)phenyl)-6-(hydroxymethyl)tetrahydro-2H-pyran-3,4,5-triol] |
| 3.51 nM | OC[C@H]1O[C@@H](c2ccc(Cl)c(Cc3nnc(-c4ccsc4)s3)c2)[C@H](O)[C@@H](O)[C@@H]1O [Example 10, (2S,3R,4R,5S,6R)-2-(4-Chloro-3-((5-(thiophen-3-yl)-1,3,4-thiadiazol-2-yl)methyl)phenyl)-6-(hydroxymethyl)tetrahydro-2H-pyran-3,4,5-triol] |
| 119 nM | Cn1cccc1-c1nnc(Cc2cc([C@@H]3O[C@H](CO)[C@@H](O)[C@H](O)[C@H]3O)ccc2Cl)s1 [Example 11, (2S,3R,4R,5S,6R)-2-(4-Chloro-3-((5-(1-methyl-1H-pyrrol-2-yl)-1,3,4-thiadiazol-2-yl)methyl)phenyl)-6-(hydroxymethyl)-tetrahydro-2H-pyran-3,4,5-triol] |
| 257 nM | Cc1cc(-c2nnc(Cc3cc([C@@H]4O[C@H](CO)[C@@H](O)[C@H](O)[C@H]4O)ccc3Cl)s2)no1 [Example 12, (2S,3R,4R,5S,6R)-2-(4-Chloro-3-((5-(5-methylisoxazol-3-yl)-1,3,4-thiadiazol-2-yl)methyl)phenyl)-6-(hydroxymethyl)tetrahydro-2H-pyran-3,4,5-triol] |
| 21.8 nM | OC[C@H]1O[C@@H](c2ccc(Cl)c(Cc3nnc(-c4cscn4)s3)c2)[C@H](O)[C@@H](O)[C@@H]1O [Example 13, (2S,3R,4R,5S,6R)-2-(4-Chloro-3-((5-(thiazol-4-yl)-1,3,4-thiadiazol-2-yl)methyl)phenyl)-6-(hydroxymethyl)tetrahydro-2H-pyran-3,4,5-triol] |
| 72.6 nM | OC[C@H]1O[C@@H](c2ccc(Cl)c(Cc3nnc(-c4cnc(-c5ccncc5)s4)s3)c2)[C@H](O)[C@@H](O)[C@@H]1O [Example 14, (2S,3R,4R,5S,6R)-2-(4-Chloro-3-((5-(2-(pyridin-4-yl)thiazol-5-yl)-1,3,4-thiadiazol-2-yl)methyl)phenyl)-6-(hydroxymethyl)-tetrahydro-2H-pyran-3,4,5-triol] |
| 30.3 nM | OC[C@H]1O[C@@H](c2ccc(Cl)c(Cc3nnc(-c4ccccn4)s3)c2)[C@H](O)[C@@H](O)[C@@H]1O [Example 15, (2S,3R,4R,5S,6R)-2-(4-Chloro-3-((5-(pyridin-2-yl)-1,3,4-thiadiazol-2-yl)methyl)phenyl)-6-(hydroxymethyl)tetrahydro-2H-pyran-3,4,5-triol] |
| 97.4 nM | Cc1ccc(-c2nnc(Cc3cc([C@@H]4O[C@H](CO)[C@@H](O)[C@H](O)[C@H]4O)ccc3Cl)s2)cn1 [Example 16, (2S,3R,4R,5S,6R)-2-(4-Chloro-3-((5-(6-methylpyridin-3-yl)-1,3,4-thiadiazol-2-yl)methyl)phenyl)-6-(hydroxymethyl)-tetrahydro-2H-pyran-3,4,5-triol] |
| 562 nM | OC[C@H]1O[C@@H](c2ccc(Cl)c(Cc3nnc(-c4ccc5ccccc5n4)s3)c2)[C@H](O)[C@@H](O)[C@@H]1O [Example 17, (2S,3R,4R,5S,6R)-2-(4-Chloro-3-((5-(quinolin-2-yl)-1,3,4-thiadiazol-2-yl)methyl)phenyl)-6-(hydroxymethyl)-tetrahydro-2H-pyran-3,4,5-triol] |
| 81.6 nM | OC[C@H]1O[C@@H](c2ccc(Cl)c(Cc3nnc(-c4cc5ccccc5cn4)s3)c2)[C@H](O)[C@@H](O)[C@@H]1O [Example 18, (2S,3R,4R,5S,6R)-2-(4-Chloro-3-((5-(isoquinolin-3-yl)-1,3,4-thiadiazol-2-yl)methyl)phenyl)-6-(hydroxymethyl)-tetrahydro-2H-pyran-3,4,5-triol] |
| 445 nM | OC[C@H]1O[C@@H](c2ccc(Cl)c(Cc3nnc(C4CCCC4)s3)c2)[C@H](O)[C@@H](O)[C@@H]1O [Example 19, (2S,3R,4R,5S,6R)-2-(4-Chloro-3-((5-cyclopentyl-1,3,4-thiadiazol-2-yl)methyl)phenyl)-6-(hydroxymethyl)tetrahydro-2H-pyran-3,4,5-triol] |
| 53 nM | OC[C@H]1OC(c2ccc(Cl)c(Cc3nnc(-c4ccncc4)s3)c2)[C@H](O)[C@@H](O)[C@@H]1O (stereo partly drawn) [Example 20, (3R,4R,5S,6R)-2-(4-Chloro-3-((5-(pyridin-4-yl)-1,3,4-thiadiazol-2-yl)methyl)phenyl)-6-(hydroxymethyl)-tetrahydro-2H-pyran-3,4,5-triol] |
| 45.3 nM | OC[C@H]1OC(c2ccc(Cl)c(Cc3nnc(-c4cccnc4)s3)c2)[C@H](O)[C@@H](O)[C@@H]1O (stereo partly drawn) [Example 21, (3R,4R,5S,6R)-2-(4-Chloro-3-((5-(pyridin-3-yl)-1,3,4-thiadiazol-2-yl)methyl)phenyl)-6-(hydroxymethyl)-tetrahydro-2H-pyran-3,4,5-triol] |
| 103 nM | Cc1ccc(-c2nnc(Cc3cc(C4O[C@H](CO)[C@@H](O)[C@H](O)[C@H]4O)ccc3Cl)s2)cc1 (stereo partly drawn) [Example 22, (3R,4R,5S,6R)-2-(4-chloro-3-((5-p-tolyl-1,3,4-thiadiazol-2-yl)methyl)phenyl)-6-(hydroxymethyl)-tetrahydro-2H-pyran-3,4,5-triol] |
| 24.9 nM | CCCc1ccc(-c2nnc(Cc3cc(C4O[C@H](CO)[C@@H](O)[C@H](O)[C@H]4O)ccc3Cl)s2)cc1 (stereo partly drawn) [Example 23, (3R,4R,5S,6R)-2-(4-Chloro-3-((5-(4-propylphenyl)-1,3,4-thiadiazol-2-yl)methyl)phenyl)-6-(hydroxymethyl)-tetrahydro-2H-pyran-3,4,5-triol] |
| 542 nM | OC[C@H]1OC(c2ccc(Cl)c(Cc3nnc(C4CCCCC4)s3)c2)[C@H](O)[C@@H](O)[C@@H]1O (stereo partly drawn) [Example 24, (3R,4R,5S,6R)-2-(4-Chloro-3-((5-cyclohexyl-1,3,4-thiadiazol-2-yl)methyl)phenyl)-6-(hydroxymethyl)-tetrahydro-2H-pyran-3,4,5-triol] |
| 460 nM | CC1CCC(Cc2nnc(Cc3cc(C4O[C@H](CO)[C@@H](O)[C@H](O)[C@H]4O)ccc3Cl)s2)CC1 (stereo partly drawn) [Example 25, (3R,4R,5S,6R)-2-(4-Chloro-3-((5-((4-methylcyclohexyl)methyl)-1,3,4-thiadiazol-2-yl)methyl)phenyl)-6-(hydroxymethyl)-tetrahydro-2H-pyran-3,4,5-triol] |

Source: patent publication US8541380B2, “C-aryl glucoside SGLT2 inhibitors and pharmaceutical compositions comprising same” (Green Cross Corporation, priority 2009, dated 2013)
